Assays:
[1] = test system: Lyn (Y396); assay: Immunoblotting of neutrophil lysates, Lyn phosphorylation; format: cell-based, human; conditions: 0.1 μM fMLF-stimulated neutrophils
Method: (§1) Neutrophils incubated with bletinib or DMSO at 37° C. for 5 min were stimulated with 0.1 μM fMLF for 30 s. The proteins were separated from neutrophil lysates through electrophoresis (12% sodium dodecyl sulphate-polyacrylamide gel electrophoresis) and then transferred to nitrocellulose membranes. The target proteins were identified through immunoblotting with specific antibodies against p38, p-p38, Akt, p-Akt S473, ERK, p-ERK, INK, p-JNK, Src, p-SFKs Y416, p-Src Y416, Lyn, p-Lyn (Y396), Fgr, p-Fgr (Y412), Hck, p-Hck (Y410), Btk, p-Btk Y223, Vav, and p-Vav (Y174) as well as with HRP-conjugated secondary anti-rabbit antibody (Cell Signaling Technology). The signal intensity was detected and quantified using the UVP BioSpectrum Imaging System (Analytik Jena, USA).

[2] = test system: Fgr (Y412); assay: Immunoblotting of neutrophil lysates, Fgr phosphorylation; format: cell-based, human; conditions: 0.1 μM fMLF-stimulated neutrophils
Method: as §1

[3] = test system: Hck (Y410); assay: Immunoblotting of neutrophil lysates, Hck phosphorylation; format: cell-based, human; conditions: 0.1 μM fMLF-stimulated neutrophils
Method: as §1

[4] = target: Hck (Homo sapiens, UniProt P08631); assay: Cell-free ADP-Glo kinase assay, Hck; format: biochemical; conditions: 1-10 μM bletinib or 0.1-3 μM PP2; 125 μM ATP; concentration-dependent
Chain of Hck (P08631 whole entry): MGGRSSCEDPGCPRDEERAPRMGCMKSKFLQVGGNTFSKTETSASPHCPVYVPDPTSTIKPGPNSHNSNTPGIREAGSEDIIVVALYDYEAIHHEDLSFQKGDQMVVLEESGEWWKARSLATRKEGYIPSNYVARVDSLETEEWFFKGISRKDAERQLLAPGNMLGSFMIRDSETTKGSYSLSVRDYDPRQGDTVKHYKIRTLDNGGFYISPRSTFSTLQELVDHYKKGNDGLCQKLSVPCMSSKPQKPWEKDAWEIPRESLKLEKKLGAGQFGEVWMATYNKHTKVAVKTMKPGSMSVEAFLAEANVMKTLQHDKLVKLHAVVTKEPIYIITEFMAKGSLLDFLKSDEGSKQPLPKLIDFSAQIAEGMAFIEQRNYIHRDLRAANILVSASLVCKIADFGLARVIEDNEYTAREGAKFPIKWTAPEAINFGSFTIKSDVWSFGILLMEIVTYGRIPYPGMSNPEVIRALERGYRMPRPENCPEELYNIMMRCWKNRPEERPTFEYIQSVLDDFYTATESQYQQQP
Method: (§2) The kinase activity of SFKs was assessed using an ADP-Glo kinase assay kit (Promega, Fitchburg, USA) according to manufacturer instructions. […] The ADP-Glo reagent was used to end the kinase reaction and remove the remnant ATP; next, the kinase, which converted ADP to ATP, detection reagent was added and incubated for 30 min. Luciferin/luciferase luminescence was determined on an Infinite 200 Pro (Tecan, Switzerland).

[5] = test system: human neutrophils; assay: NET formation, quantification of extracellular DNA with Sytox green; format: cell-based; conditions: 10 nM PMA; 1-10 μM bletinib
Method: Human neutrophils (10^6 cells/mL) resuspended in HBSS with 2.5 μM Sytox green were incubated with DMSO or bletinib for 10 min and stimulated using 10 nM PMA or 10 μg/mL LPS for 3 h. The fluorescence intensity was quantified on a Tecan Infinite 200 reader at 485-535 nm.

[6] = test system: human neutrophils; assay: Intracellular superoxide/ROS production, DHR123 flow cytometry; format: cell-based; conditions: 0.1-3 μM bletinib; 0.1 μM fMLF; dose-dependent
Method: Human neutrophils (2.5×10^6 cells/mL) were labelled using 2 μM dihydrorhodamine 123 (DHR123) at 37° C. for 10 min and then incubated with DMSO or bletinib for 5 min and then stimulated with 0.1 μM fMLF/0.5 μg/mL CB for 15 min. The fluorescence intensity was detected through flow cytometry to evaluate intracellular superoxide anion production of human neutrophils.

[7] = target: Fgr (Homo sapiens, UniProt P09769); assay: Cell-free ADP-Glo kinase assay, Fgr; format: biochemical; conditions: 1-10 μM bletinib or 0.1-3 μM PP2; 125 μM ATP; concentration-dependent
Chain of Fgr (P09769 whole entry): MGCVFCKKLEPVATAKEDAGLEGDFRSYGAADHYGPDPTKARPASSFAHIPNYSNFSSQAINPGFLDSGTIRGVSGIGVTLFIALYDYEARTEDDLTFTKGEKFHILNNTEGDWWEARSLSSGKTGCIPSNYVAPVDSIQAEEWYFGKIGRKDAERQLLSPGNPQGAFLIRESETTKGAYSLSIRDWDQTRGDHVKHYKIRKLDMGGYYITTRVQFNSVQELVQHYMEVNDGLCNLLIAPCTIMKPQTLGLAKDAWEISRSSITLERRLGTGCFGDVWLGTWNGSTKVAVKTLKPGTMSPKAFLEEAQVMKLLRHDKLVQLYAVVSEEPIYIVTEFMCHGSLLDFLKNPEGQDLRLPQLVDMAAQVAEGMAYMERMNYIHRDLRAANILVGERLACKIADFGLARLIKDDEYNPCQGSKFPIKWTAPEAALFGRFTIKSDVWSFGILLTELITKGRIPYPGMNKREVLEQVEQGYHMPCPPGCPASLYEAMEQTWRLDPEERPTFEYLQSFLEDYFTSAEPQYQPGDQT
Method: as §2

[8] = test system: human neutrophils; assay: Extracellular superoxide anion production in stimulated neutrophils (ferricytochrome c reduction); format: cell-based
Method: Extracellular superoxide anion production in activated neutrophils was assessed through the reduction of ferricytochrome c. After incubating them with Ca^2+ (1 mM) and ferricytochrome c (0.5 mg/mL) at 37° C., the isolated human neutrophils (6×10^5 cells/mL) were then incubated with 0.1% DMSO or 0.3-10 μM bletinib for 5 min. The cells were pretreated with cytochalasin B (CB, 1 or 2 μg/mL) for 3 min and stimulated with fMLF, MMK-1, or sodium fluoride (NaF), or directly activated with phorbol-12-myristate-13-acetate (PMA). The change in absorbance at 550 nm was detected continuously using a spectrophotometer (U-3010, Hitachi, Tokyo, Japan), and superoxide anion levels were calculated using a method described previously (Hwang et al., 2003 Mol. Pharmacol. 64(6), 1419-1427).

[9] = target: Src (Homo sapiens, UniProt P12931); assay: Cell-free ADP-Glo kinase assay, Src; format: biochemical; conditions: 1-10 μM bletinib or 0.1-3 μM PP2; 125 μM ATP; concentration-dependent
Chain of Src (P12931 whole entry): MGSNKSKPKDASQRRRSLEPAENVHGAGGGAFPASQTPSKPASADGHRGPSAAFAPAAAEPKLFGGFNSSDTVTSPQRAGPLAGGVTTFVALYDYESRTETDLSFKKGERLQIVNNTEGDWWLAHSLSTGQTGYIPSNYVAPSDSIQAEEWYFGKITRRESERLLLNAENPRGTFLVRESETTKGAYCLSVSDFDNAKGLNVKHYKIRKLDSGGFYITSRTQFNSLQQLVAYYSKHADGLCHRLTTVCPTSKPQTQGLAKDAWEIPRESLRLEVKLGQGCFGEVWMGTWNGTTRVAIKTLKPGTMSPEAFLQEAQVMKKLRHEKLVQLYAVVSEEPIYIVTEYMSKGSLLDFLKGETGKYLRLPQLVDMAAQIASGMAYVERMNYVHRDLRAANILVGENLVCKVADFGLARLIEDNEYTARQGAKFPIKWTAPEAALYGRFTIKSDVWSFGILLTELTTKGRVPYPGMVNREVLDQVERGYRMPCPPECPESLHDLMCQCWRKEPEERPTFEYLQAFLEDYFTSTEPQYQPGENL
Method: as §2

[10] = test system: human neutrophils; assay: NET photography (immunofluorescence and scanning electron microscopy); format: cell-based; conditions: 10 nM PMA; 1-10 μM bletinib
Method: Neutrophils (3×10^5 cells/mL) were incubated with DMSO or bletinib for 10 min before being activated with 10 nM PMA for 2 h. Neutrophils were fixed with 4% paraformaldehyde and treated with 5% goat serum blocking buffer for 1 h and then treated with […] anti-MPO (Abcam) and 5 μg/mL anti-NE (Merck Millipore) antibodies for 1 h. These cells were then treated with the Alexa 488 or 568-labelled secondary goat anti-rabbit antibody for another 1 h. Thereafter, the cells were washed with PBS and treated with 1 ng/mL Hoechst 33342 and ProLong Gold antifade reagent (Invitrogen, CA, USA). Immunofluorescence microscopy and scanning electron microscopy were both used to observe the NET formation of activated neutrophils.

[11] = test system: human neutrophils; assay: Neutrophil migration, microchemotaxis chamber; format: cell-based
Method: A microchemotaxis chamber with 3-μm filters (Millipore) was used to evaluate chemotactic migration of neutrophils. Neutrophils (5×10^6 cells/mL) treated with bletinib or DMSO for 5 min were placed in the top chamber, and 0.1 μM fMLF was added into the bottom chamber. The number of neutrophils that migrated from the top to the bottom chamber after incubation at 5% CO2 for 1 h was counted on a MoxiZ automatic cell counter (ORFLO).

[12] = test system: CD11b (integrin αM); assay: Surface CD11b expression, flow cytometry; format: cell-based, human
Method: Neutrophils (5×10^5 cells/mL) were incubated with bletinib or DMSO for 5 min and then activated through incubation with 0.1 μM fMLF/1 μg/mL CB for 5 min. After centrifugation at 200×g for 8 min at 4° C., the cells were resuspended in 5% bovine serum albumin with FITC-conjugated antibodies against CD18 or CD11b on ice in the dark for 15 min. The fluorescent intensity was then analysed through fluorescence-activated cell sorting.

[13] = test system: human neutrophils; assay: Cytotoxicity assessed using LDH release; format: cell-based
Method: FIG. 1 Bletinib suppressed superoxide anion production in stimulated human neutrophils. Neutrophils (6×10^5 cells/mL) were incubated with 0.1% DMSO or […] bletinib for 5 min before activation with stimuli. Superoxide anion production was induced by (A) fMLF, (B) MMK-1, (C) NaF, or (D) PMA and then measured using ferricytochrome c reduction method. (E) Cytotoxicity was assessed using LDH release. (F) Superoxide scavenging capacity of bletinib was assessed in a xanthine/xanthine oxidase cell-free system. WST-1 reduction was measured through spectrophotometry at 450 nm, with 20 U/mL superoxide dismutase as the positive control.

Q: Which results are given for `COc1cc(O)cc(CCc2c(Cc3ccc(O)cc3)ccc(O)c2Cc2ccc(O)cc2)c1` [bletinib, 3,3′-dihydroxy-2′,6′-bis(p-hydroxybenzyl)-5-methoxybibenzyl]?
A: phosphorylation of Lyn (Y396) [1]: significantly inhibited; phosphorylation of Fgr (Y412) [2]: significantly inhibited; phosphorylation of Hck (Y410) [3]: significantly inhibited; kinase activity of Hck [4]: inhibited; NET formation induced by PMA, fluorescent spectrometry (Sytox green) [5]: significantly mitigated; intracellular ROS production, flow cytometry (DHR123 MFI) [6]: significantly suppressed; kinase activity of Fgr [7]: inhibited; IC50 ([8]; Homo sapiens, Neutrophil, fMLF stimulation, bletinib preincubated 5 min, read-out: superoxide anion produced by fMLF-activated human neutrophils, IC50): 620 nM; superoxide anion release from neutrophils stimulated by MMK-1 ([8]; MMK-1 stimulation): attenuated; superoxide anion release from neutrophils stimulated by sodium fluoride (NaF) ([8]; NaF stimulation): attenuated; superoxide anion release from neutrophils stimulated by PMA ([8]; PMA stimulation): attenuated; kinase activity of Src [9]: inhibited; NET formation, immunofluorescent staining and scanning electron microscopy images [10]: effectively inhibited; fMLF-induced transwell migration of neutrophils ([11]; 1-10 μM bletinib, 0.1 μM fMLF): significantly reduced; IL-8-induced neutrophil migration ([11]; IL-8, data not shown): inhibited; expression of CD11b in fMLF-stimulated human neutrophils ([12]; 1-10 μM bletinib, 0.1 μM fMLF/CB): significantly attenuated; IL-8-induced CD11b expression ([12]; IL-8, data not shown): restrained; cytotoxicity (LDH release) [13]: did not exhibit cytotoxicity

— patent US20220339122A1, “METHODS FOR THE TREATMENT OF DISEASES ASSOCIATED WITH DYSREGULATED ACTIVATION AND RECRUITMENT OF NEUTROPHILS” (Chang Gung University, priority 2021, published 2022)
